Consider 4 compounds from EP4667458A1 (Kanaph Therapeutics Inc., priority 2023, dated 2024).

In experiment [1] the test system is lung cancer cell line NCI-H358 having the KRAS G12C variant. Briefly: Cell viability (Cell Titer-Glo) on combined administration, NCI-H358. The experiment is classed as cell-based. The source says:
When the example compound was used in combination with an anticancer agent, the effect on the growth ability of cancer cells expressing KRAS variant or EGFR variant was confirmed. In order to confirm the effect of the example compound in combination with a MEK inhibitor or a KRAS G12C inhibitor in the cell line having the KRAS variant, the cell growth inhibitory effect by the treatment of the example compound in combination with a MEK inhibitor or a KRAS G12C inhibitor was confirmed in the gastric cancer cell line SNU-1 and the pancreatic cancer cell line KP4 having the KRAS G12D variant, the lung cancer cell line NCI-H358 and the pancreatic cancer cell line MIA PaCa-2 having the KRAS G12C variant, the colorectal cancer cell line SW480 having the KRAS G12V variant, the lung cancer cell line A549 having the KRAS G12S variant, the colorectal cancer cell line LoVo having the KRAS G13D variant. In addition, in order to confirm the effect of the example compound in combination with an EGFR inhibitor in the cell line having the EGFR variant, the cell growth inhibitory effect by the treatment of the example compound in combination with an EGFR inhibitor was confirmed in the lung cancer cell line H1975 having the EGFR L858R/T790M variant and the lung cancer cell line HCC827 having the EGFR Del19 variant. […]

For experiment [2], the target named is T1, KRAS^G12C::SOS1 (Homo sapiens, UniProt Q07889).
T1 sequence (Q07889 1-1333): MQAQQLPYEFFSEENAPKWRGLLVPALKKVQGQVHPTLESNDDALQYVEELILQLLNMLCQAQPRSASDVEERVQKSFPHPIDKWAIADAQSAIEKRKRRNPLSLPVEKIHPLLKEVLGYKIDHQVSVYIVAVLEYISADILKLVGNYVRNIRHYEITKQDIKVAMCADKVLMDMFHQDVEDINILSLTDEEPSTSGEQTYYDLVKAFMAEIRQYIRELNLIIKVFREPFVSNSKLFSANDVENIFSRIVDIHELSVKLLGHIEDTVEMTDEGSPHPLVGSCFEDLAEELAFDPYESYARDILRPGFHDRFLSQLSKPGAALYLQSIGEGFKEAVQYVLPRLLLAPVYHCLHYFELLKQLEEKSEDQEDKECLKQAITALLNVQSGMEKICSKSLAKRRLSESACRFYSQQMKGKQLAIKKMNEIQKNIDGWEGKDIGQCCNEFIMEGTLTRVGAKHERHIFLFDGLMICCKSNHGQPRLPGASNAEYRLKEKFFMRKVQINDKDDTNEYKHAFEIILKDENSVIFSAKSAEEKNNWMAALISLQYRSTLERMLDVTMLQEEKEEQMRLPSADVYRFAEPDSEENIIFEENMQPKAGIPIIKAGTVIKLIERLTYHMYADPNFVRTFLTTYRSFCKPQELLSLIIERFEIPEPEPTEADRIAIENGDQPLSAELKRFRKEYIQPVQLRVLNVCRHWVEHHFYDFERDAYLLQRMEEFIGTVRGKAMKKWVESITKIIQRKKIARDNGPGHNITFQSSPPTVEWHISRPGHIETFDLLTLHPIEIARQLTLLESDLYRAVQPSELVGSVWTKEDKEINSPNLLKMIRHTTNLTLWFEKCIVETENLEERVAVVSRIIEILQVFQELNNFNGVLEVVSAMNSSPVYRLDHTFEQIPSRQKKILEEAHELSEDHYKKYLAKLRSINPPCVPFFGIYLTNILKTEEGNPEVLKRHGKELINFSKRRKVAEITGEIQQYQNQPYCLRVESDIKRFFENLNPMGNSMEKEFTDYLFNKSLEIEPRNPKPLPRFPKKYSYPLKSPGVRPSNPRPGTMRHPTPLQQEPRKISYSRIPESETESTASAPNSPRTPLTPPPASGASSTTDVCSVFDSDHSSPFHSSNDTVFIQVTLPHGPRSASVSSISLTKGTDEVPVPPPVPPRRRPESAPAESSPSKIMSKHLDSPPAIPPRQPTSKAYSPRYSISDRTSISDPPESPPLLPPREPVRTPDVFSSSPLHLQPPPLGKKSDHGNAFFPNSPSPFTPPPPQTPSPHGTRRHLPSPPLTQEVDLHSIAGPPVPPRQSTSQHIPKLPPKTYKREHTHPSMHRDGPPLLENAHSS
The experiment in a line: KRAS G12C::SOS1 protein-protein interaction (PPI) inhibition assay (HTRF binding kit).

Experiment [3] can be described thus: Cell viability with a combined anticancer agent plus Example B01 (Synergy 1 / Synergy 2). The experiment is classed as cell-based. As to conditions: culture time 72 h; printed in the anticancer agent concentration column.
Experiment [4] has as its target T2, SOS1 (Homo sapiens, UniProt Q07889).
T2 construct: adding equal amounts of HIS-SOS1cat (160 nM; Cytoskeleton, US); His; purchased Cytoskeleton, US
T2 sequence (Q07889 564-1049 limits assumed): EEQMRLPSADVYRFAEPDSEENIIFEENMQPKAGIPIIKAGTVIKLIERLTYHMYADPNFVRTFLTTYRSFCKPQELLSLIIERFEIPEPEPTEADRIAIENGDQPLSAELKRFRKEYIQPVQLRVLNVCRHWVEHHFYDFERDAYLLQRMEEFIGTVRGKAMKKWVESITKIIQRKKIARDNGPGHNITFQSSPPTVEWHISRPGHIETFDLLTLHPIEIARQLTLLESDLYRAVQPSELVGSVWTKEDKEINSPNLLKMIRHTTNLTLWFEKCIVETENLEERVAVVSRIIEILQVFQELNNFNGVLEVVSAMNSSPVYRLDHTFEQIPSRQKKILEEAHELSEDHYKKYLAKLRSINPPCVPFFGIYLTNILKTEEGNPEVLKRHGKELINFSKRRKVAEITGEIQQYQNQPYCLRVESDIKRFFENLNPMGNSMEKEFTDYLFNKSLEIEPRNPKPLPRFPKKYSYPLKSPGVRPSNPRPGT
Briefly: SOS-catalyzed nucleotide exchange assay (HTRF, SOS1-mediated GTP loading of KRAS G12D). The experiment is classed as biochemical. The method, boiled down:
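SOS1cat (HIS-tagged) preincubated 10 min at room temperature with compound (128 pM-10 µM), then GST-KRAS G12D with anti-GST terbium added; GTP loading tracked as HTRF with a DY-647P1 GTP analogue after 30 min, buffer HEPES pH 7.4. GEF-free wells for normalization; IC50 derived.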
Background: Time-resolved FRET reads energy transfer from a long-lived donor to a nearby acceptor.

In experiment [5] the test system is lung cancer cell line H358 having the KRAS G12C variant. The experiment in a line: SynergyScreen determination of combination concentration (ATPlite 1Step cell viability). The format is cell-based. As to conditions: EFFECT20 applied as final treatment concentration in the combination experiment. The procedure: The cells were treated by adding 5 µL of a test solution of Example B01 per well to a 384 well plate in which the lung cancer cell line H358 having the KRAS G12C variant was dispensed so that the final concentration of the substance was 31.6 µM to 0.00316 µM in 50 µL of the solution per well. The cells treated with Example B01 were cultured under conditions of 37 °C and 5% carbon dioxide for 72 h or 120 h. In order to measure cell viability, each well was treated with 24 µL of ATPlite 1Step™ (PerkinElmer) solution, then mixed for 2 minutes, and reacted by blocking light for 5 minutes, and then the luminescence signal was measured using an Envision multilabel reader (PerkinElmer). The cell viability was determined according to the formula below, and the concentration (EFFECT20) of Example B01 that induces 20% cell death was calculated using IDBS XLfit 5. The EFFECT20 concentration of Example B01 determined through the experiment was applied as the final treatment concentration of Example B01 during the combination effect experiment. [formula]
In order to confirm the effect of Example B01 in combination with various anticancer agents, a total of 42 anticancer agents, including cytotoxic anticancer agents and targeted anticancer agents, were used for evaluation (Table 31). […]
On the technique in general: Cellular ATP, detected with luciferase, serves as a proxy for viable cell number.

pIC50: −log10 of the molar value. Like-named read-outs stand apart in the source and are kept apart here. A value given as a limit tells only on which side of the number the result lay.

A word on the pIC50: it is the IC50 on a negative log10 scale, so that one unit is a factor of ten.

As to `CNCc1ccc(Cl)cc1-c1ccc([C@@H](C)NC(=O)c2ccc(=O)n(-c3ccccc3F)n2)s1` [Example 295, N-[(1R)-1-[5-[5-chloro-2-(methylaminomethyl)phenyl]-2-thienyl]ethyl]-1-(2-fluorophenyl)-6-oxo-pyridazine-3-carboxamide], the cell viability entry is listed as “decreased” in experiment [1] (INK-128 (3.2-100 nM) in combination with Example 295 (0-300 nM) compared to INK-128 alone, 72 h, FIG. 1) and “decreased” in experiment [1] (sotorasib (0.14-10 nM) in combination with Example 295 (0-300 nM) compared to sotorasib alone, FIG. 2). Moreover, the pIC50 in experiment [2] was more than 6.00.

On to `C[C@]12C=CC(=O)C=C1CC[C@@H]1[C@@H]2[C@@H](O)C[C@@]2(C)[C@H]1CC[C@]2(O)C(=O)CO` [Prednisolone, prednisolone], for which the “concentration dependence of the effect of the anticancer agent on cell viability” value in experiment [3] is “No concentration -dependent change”.

Consider `COc1ccc(-n2nc(C(=O)N[C@H](C)c3cc(N)cc(C(F)(F)F)c3)ccc2=O)c(F)c1` [Example 152, N-[(1R)-1-[3-amino-5-(trifluoromethyl)phenyl]ethyl]-1-(2-fluoro-4-methoxy-phenyl)-6-oxo-pyridazine-3-carboxamide], for which the pIC50 in experiment [4] (GST-KRAS G12D, HIS-SOS1cat, EDA-GTP-DY-647P1, compound 128 pM to 10 µM, read-out: SOS-catalyzed nucleotide exchange assay (IC50 range, Grade)) was more than 6.00; in experiment [2], more than 6.00.

On to `C[C@@H](NC(=O)c1ccc(=O)n(-c2cncc(-c3cnnn3C)c2)n1)c1cccc(C(F)(F)F)c1F` [Example B01, N-[(1R)-1-[2-fluoro-3-(trifluoromethyl)phenyl]ethyl]-1-[5-(3-methyltriazol-4-yl)-3-pyridyl]-6-oxo-pyridazine-3-carboxamide], for which the pIC50 in experiment [4] and in experiment [2] was more than 6.00 in each case. The “concentration (EFFECT20) that induces 20% cell death” value in experiment [5] (culture time 72 h) is reported as 1854 nM; in experiment [5] (culture time 120 h), 652 nM.
